Results from article PMC7997032, “Organic synthesis and anti-influenza A virus activity of cyclobakuchiols A, B, C, and D” (PLoS ONE, 2021).
Where “and” joins values, the source holds several entries; their conditions need not be identical. Identical values can stand only once.

What was measured:
[1] = test system: A/PR/8/34 virus; assay: Influenza A viral growth assay (viral titer of culture media); assay type: cell-based, influenza A H1N1 virus; set-up: viral titer of culture media, individual replicate / viral titer of culture media, ave: unit not given here; settings: A/PR/8/34 (PR8), 12.5uM, average of #1-3 exp (n=9)
[2] = test system: A/WSN/33 virus; assay: as above; assay type: cell-based, influenza A H1N1 virus; settings: A/WSN/33 (WSN), 12.5uM, average of #1-3 exp (n=9)
[3] = test system: A/PR/8/34 virus; assay: RT-qPCR of viral mRNAs (NP, NS1, PA, PB1, PB2, M2) in infected MDCK cells; assay type: cell-based, influenza A H1N1 virus
[4] = test system: A/PR/8/34 virus; assay type: cell-based; settings: 12.5 μM
[5] = test system: canine interferon-β (Ifn-β); assay: RT-qPCR of Ifn-β mRNA in MDCK cells with or without A/PR/8/34 virus; assay type: cell-based; settings: 12.5uM, relative to virus - DMSO; for MDCK IFN-b mRNA, ave: ave of #1-3 exp; for MDCK IFN-b mRNA, individual replicates: replicates 1-3 of #1, #2, #3 exp, listed as Cyclobakuchiol A
[6] = test system: NAD(P)H quinone oxidoreductase 1 (Nqo1); assay: RT-qPCR of Nqo1 mRNA in MDCK cells with or without A/PR/8/34 virus; assay type: cell-based, canine; settings: for NQO1 Canis lupus mRNA, ave / NQO1 Canis lupus mRNA, individual replicates: 12.5uM, MDCK, relative to virus - DMSO; for NQO1 Canis lupus mRNA, ave: ave of #1-3 exp; for NQO1 Canis lupus mRNA, individual replicates: replicates 1-3 of #1, #2, #3 exp, listed as Cyclobakuchiol A
[7] = test system: Nrf2; assay: Nrf2 reporter assay (dual luciferase system) in MDCK cells; assay type: cell-based, canine
Protocol: An Nrf2 reporter assay based on the dual luciferase system was performed as previously described. The plasmid pNQO1-ARE (antioxidant response element)-Fluc, provided by Yamamoto M., expressed a Firefly luciferase gene driven by Nrf2 activation, while the plasmid pRL-TK-Rluc vector (Promega, CA, USA) expressed a Renilla luciferase gene driven by the herpes simplex viral thymidine kinase promoter as an internal control. MDCK cells were seeded in a 24-well plate at 1 × 10^5 cells/well and transfected with pNQO1-ARE-luc (0.25 μg) and pRL-TK-Rluc (0.25 μg). At 24 h post-transfection, the cells were treated with 12.5 μM cyclobakuchiols A–D in the infection medium at 37°C under 5% CO2. DMSO (0.125%) and 12.5 μM 1 were used as negative and positive controls, respectively. Total RNA was extracted from the MDCK cell lysates after 24 h of incubation. The levels of Firefly and Renilla luciferase mRNAs were analyzed by RT-qPCR and normalized to that of β-actin mRNA.

[8] = test system: A/PR/8/34 virus; assay: Immunofluorescence staining of viral NP in influenza A virus-infected MDCK cells; settings: for NP/DAPI (%) ave: average of 9 wells
[9] = test system: A/WSN/33 virus; assay: as above; settings: WSN
Protocol: MDCK cells were seeded on a 96-well plate at 1 × 10^4 cells/well. […] Each mixture was added to the cells at 37°C in the presence of 5% CO2. […] After influenza A viral infection for 24 h, the cells were fixed with 4% paraformaldehyde in phosphate-buffered saline (PBS) for 30 min at 4°C and subsequently permeabilized by the addition of 0.3% Triton X-100 for 20 min at 25°C. A mouse primary antibody was used to detect the NP of A/PR/8/34 or A/WSN/33 viruses (FluA-NP 4F1; SouthernBiotech, AL, USA). Alexa Fluor488-conjugated goat anti-mouse IgG (H + L) antibody (Thermo Fisher Scientific) was used as the secondary antibody. Cell nuclei were then stained using diamidino-2-phenylindole (DAPI) (Thermo Fisher Scientific). Wells were photographed using a fluorescence microscope (BIOREVO BZ-X700; Keyence, Osaka, Japan). The proportion of influenza A NP-positive cells per DAPI-positive cells was calculated based on measurements recorded using BZ-X Analyzer software (Keyence).

[10] = MDCK cells, PR8 virus, relative to DMSO (about 1), ave of #1-3 exp (9 values)
[11] = MDCK cells, PR8 virus, relative to DMSO, replicates 1-3 of #1, #2, #3 exp, listed as Cyclobakuchiol A
[12] = 24h WB, average of 3 experiments
[13] = 24h WB, single experiment, listed as cyclo A

## C=C[C@]1(C)CCC(C(=C)C)C(c2ccc(O)cc2)C1 (stereo in doubt) [cyclobakuchiol A]
[1]; 12h
  viral titer of culture media, ave: 31111.1
[1]; 48h
  viral titer of culture media, ave: 28888.9
[1]; 72h
  viral titer of culture media, ave: 20000
[2]; 12h
  viral titer of culture media, ave: 10300
[2]; 24h
  viral titer of culture media, ave: 22944444
[2]; 48h
  viral titer of culture media, ave: 177111111
[2]; 72h
  viral titer of culture media, ave: 106555556
[3]; 12.5 μM, 24 h, Fig 6A
  reduction in the level of NP mRNA compared with 4 and 5: significantly stronger
[3]; 12.5 μM, 24 h, Fig 6E
  reduction in the level of PB2 mRNA compared with 5: significantly stronger
[3]; MDCK PR8, NP mRNA, relative (DMSO about 1), average of #1-3 exp (n=9)
  PR8 NP gene expression qPCR, ave: 0.01993
[3]; MDCK PR8, NP mRNA, relative (DMSO about 1), replicates of #1-3 exp, listed as Cyclobakuchiol A
  PR8 NP gene expression qPCR, individual replicate: 0.004781 and 0.02173 and 0.01679 and 0.02307 and 0.03646 and 0.02695 and 0.03647 and 0.007215 and 0.005883
[3]; MDCK PR8, NS1 mRNA, relative (DMSO about 1), average of #1-3 exp (n=9)
  PR8 NS1 gene expression qPCR, ave: 0.01311
[3]; MDCK PR8, NS1 mRNA, relative (DMSO about 1), replicates of #1-3 exp, listed as Cyclobakuchiol A
  PR8 NS1 gene expression qPCR, individual replicate: 0.006023 and 0.01703 and 0.01038 and 0.0146 and 0.02282 and 0.01557 and 0.01791 and 0.008546 and 0.005121
[3]; MDCK PR8, PA mRNA, relative (DMSO about 1), average of #1-3 exp (n=9)
  PR8 PA gene expression qPCR, ave: 0.01493
[3]; MDCK PR8, PA mRNA, relative (DMSO about 1), replicates of #1-3 exp, listed as Cyclobakuchiol A
  PR8 PA gene expression qPCR, individual replicate: 0.007746 and 0.01438 and 0.00964 and 0.01502 and 0.02904 and 0.01721 and 0.0228 and 0.01256 and 0.005972
[3]; [10]
  PR8 M2 gene expression qPCR, ave: 0.01356
  PR8 PB1 gene expression qPCR, ave: 0.01089
  PR8 PB2 gene expression qPCR, ave: 0.01486
[3]; [11]
  PR8 M2 gene expression qPCR, individual replicates: 0.006283 and 0.01574 and 0.01119 and 0.01541 and 0.02852 and 0.01303 and 0.01716 and 0.01044 and 0.004303
  PR8 PB1 gene expression qPCR, individual replicates: 0.005833 and 0.007225 and 0.006699 and 0.007236 and 0.02285 and 0.01622 and 0.02095 and 0.006264 and 0.00475
  PR8 PB2 gene expression qPCR, individual replicates: 0.006621 and 0.01468 and 0.01232 and 0.01635 and 0.03014 and 0.01618 and 0.02349 and 0.009706 and 0.004275
[4]; [12]
  NP/b-actin ave: 0.4278
  NS1/b-actin ave: 0.4825
[4]; [13]
  NP mean (western blot signal intensity, ImageJ): 46.861 and 57.758 and 73.552
  NP/b-actin: 0.5523 and 0.2997 and 0.4315
  NS1/b-actin: 0.4154 and 0.4658 and 0.5663
  NS1 mean (western blot signal intensity, ImageJ): 72.823 and 75.793 and 55.326
[4]; 24 h post-infection, Fig 7C
  expression level of NP protein compared with the 4 or 5 treatment groups: significantly reduced
[5]; virus +
  MDCK IFN-b mRNA, ave: 3.338
  MDCK IFN-b mRNA, individual replicates: 0.977 and 7.49 and 3.1238 and 7.575 and 1.945 and 2.0516 and 3.014 and 1.296 and 2.57
[5]; virus -
  MDCK IFN-b mRNA, ave: 4.43
  MDCK IFN-b mRNA, individual replicates: 0.3432 and 9.774 and 14.2997 and 12.0611 and 0.902 and 0.6358 and 0.8443 and 0.4235 and 0.5869
[6]
  relative mRNA level of Nqo1 compared with 4- and 5-treated cells: significantly higher
[6]; virus + (PR8)
  NQO1 Canis lupus mRNA, ave: 1.589
  NQO1 Canis lupus mRNA, individual replicates: 2.006 and 1.48 and 1.365 and 1.506 and 1.318 and 1.456 and 1.551 and 1.721 and 1.896
[6]; virus -
  NQO1 Canis lupus mRNA, ave: 1.2966
  NQO1 Canis lupus mRNA, individual replicates: 1.091 and 1.486 and 1.24 and 1.353 and 1.444 and 1.092 and 1.099 and 1.4686 and 1.396
[6]; without A/PR/8/34 virus, 12.5 μM, 24 h
  relative mRNA level of Nqo1 compared with DMSO: significantly upregulated
[7]; 12.5 μM, 24 h, MDCK cells
  Nrf2 activation (reporter assay) in contrast to DMSO: induced
[7]; 12.5uM, relative to DMSO trans+, ave of #1-3 exp
  pNQO1-ARE-Luc NRF2 reporter assay, ave: 1.46
[7]; 12.5uM, relative to DMSO trans+, two values each of #1, #2, #3 exp, listed as Cyclobakuchiol A
  pNQO1-ARE-Luc NRF2 reporter assay, individual replicates: 1.665 and 1.021 and 1.596 and 1.77 and 1.598 and 1.113
[8]; A/PR/8/34, 3.1 μM, 24 h, Fig 4B
  percentage of influenza A NP-positive cells relative to DMSO: significantly reduced
[8]; A/PR/8/34, 3.13 uM
  NP/DAPI (%) ave: 4.608%
[8]; A/PR/8/34, 6.25 uM
  NP/DAPI (%) ave: 1.65%
[8]; A/PR/8/34, 12.5 uM
  NP/DAPI (%) ave: 1.121%
[8]; A/PR/8/34, 12.5 uM, single well, listed as Cyclobaku. A
  NP (NP-positive cell count): 4 and 2 and 3
[8]; A/PR/8/34, 25 uM
  NP/DAPI (%) ave: 0.8303%
[8]; A/PR/8/34, 25 uM, single well, listed as Cyclobaku. A
  NP/DAPI (%): 2.804% and 0.7843% and 0.5666% and 0.5181% and 1.085% and 0.489% and 0.3145% and 0.3937%
[8]; Influenza A virus, PR/8, MDCK, read-out: half maximal (50%) inhibitory concentration (IC50)
  IC50: 1700 ± 800 nM
[9]; 3.13uM, ave of 9 values (3 exp)
  NP/DAPI (%) ave: 33.269%
[9]; 6.25uM, ave of 9 values (3 exp)
  NP/DAPI (%) ave: 28.3611%
[9]; 12.5uM, ave of 9 values (3 exp)
  NP/DAPI (%) ave: 27.0591%
[9]; 25uM, ave of 9 values (3 exp)
  NP/DAPI (%) ave: 29.2459%
[9]; ave summary, 3.13%
  NP/DAPI (%) ave: 33.269%
[9]; ave summary, 6.25%
  NP/DAPI (%) ave: 28.3611%
[9]; ave summary, 12.50%
  NP/DAPI (%) ave: 27.0591%
[9]; ave summary, 25%
  NP/DAPI (%) ave: 29.2459%
